{
  "source": "ChEMBL document CHEMBL1158083",
  "about": "“Indole alkaloids from Cephalanceropsis gracilis” (J Nat Prod, 2006)",
  "format_in_all_cases": "functional, cell-based",
  "key": {"[1]": {"tested_on": "NCI-H460", "assay": "Cytotoxicity against human NCI-H460 cells by MTT assay"}, "[2]": {"tested_on": "MCF7", "assay": "Cytotoxicity against human MCF7 cells by MTT assay"}, "[3]": {"tested_on": "SF-268", "assay": "Cytotoxicity against human SF-268 cells by MTT assay"}},
  "data": [
    {"smiles": "O=C1C(C2(C3(C4=Nc5ccccc5C4=O)Nc4ccccc4C3=O)Nc3ccccc3C2=O)=Nc2ccccc21", "note": "(stereo not drawn) [CEPHALINONE D]", "values": [
      {"measurement": "IC50", "setting": "[1]", "result": 7.8, "unit": "µM"},
      {"measurement": "IC50", "setting": "[2]", "result": 7.57, "unit": "µM"},
      {"measurement": "IC50", "setting": "[3]", "result": 12.2, "unit": "µM"}
    ]}
  ]
}
